The source of these data is publication PMC10576769 (Nature Communications, 2023).

Values joined by “and” are separate entries in the source; they are usually repeats but may differ in a detail not shown here. Equal entries are not always repeated. Where two headings read alike, the source gives them in different places. Where a SMILES comes first, the peptide text is derived from it.

The target of one test is LmPC-PLC (Listeria monocytogenes serovar 1/2a, UniProt P33378). The test is described as follows: biochemical. The conditions noted are these: for Enzymatic activity towards 4-NPPC (slope): Lm 500 nM, 0 = no slope could be determined; for Enzymatic activity towards 4-NPPC (slope) / Activity of LmPC-PLC towards 4-NPPC (slope): 4-NPPC 1 mM; for Activity of LmPC-PLC towards 4-NPPC (slope): LmPC-PLC 500 nM, 20 mM MES pH 6.5, 150 mM NaCl, 50 μM ZnSO4. The test is classed as biochemical.

Test [1] concerns BcPC-PLC. It is filed as biochemical, Bacillus cereus.
The subject of test [2] is CpPC-PLC. The test is classed as biochemical, Clostridium perfringens.
Test [3] is classed as binding. The conditions noted are these: pH 6.5.
Test [4] concerns BcPC-PLC. The test is classed as biochemical, Bacillus cereus. This is another data set of the same source.
Test [5] relates to CpPC-PLC. It is filed as biochemical, Clostridium perfringens. This is another data set of the same source.
In the next test the test system is LmPC-PLC^C143S. It is filed as biochemical, Listeria monocytogenes. The conditions noted are these: Fig. 4g, as E100.
In another test the test system is LmPC-PLC^C168S. It is filed as biochemical, Listeria monocytogenes. As to conditions: Fig. 4g, as E100.
In the next test the test system is LmPC-PLC^C143S+C168S. It is filed as biochemical, Listeria monocytogenes. The conditions noted are these: Fig. 4g, as E100.

Take `c1cnc2c(c1)ccc1cccnc12` [O-phe, O-phenanthroline]: the “Enzymatic activity towards 4-NPPC (slope)” value is reported as 0 on LmPC-PLC (O-phe 1 mM + ions (50 μM ZnSO4), replicate 1); 0 at LmPC-PLC (O-phe 1 mM + ions (50 μM ZnSO4), replicate 2); 0 on LmPC-PLC (O-phe 1 mM + ions (50 μM ZnSO4), replicate 3); 0 on LmPC-PLC (O-phe 1 mM, no ions added, replicate 1); 0 on LmPC-PLC (O-phe 1 mM, no ions added, replicate 2); 0 at LmPC-PLC (O-phe 1 mM, no ions added, replicate 3). Moreover, the “Enzymatic activity towards 4-NPPC (slope)” value in the test on BcPC-PLC [1] and in the test with CpPC-PLC [2] was 0 each time. Further, on LmPC-PLC (O-phe 1 mM, 50 μM Zn2+ added to the protein, 30 min preincubation, 4-NPPC, Supplementary Fig. 9c), the “inhibition of LmPC-PLC activity by O-phe” value is on record as “completely inhibited”. Also, the “Activity of LmPC-PLC towards 4-NPPC (slope)” value is given as 0.0003865 abs/min at LmPC-PLC (inhibitor 4 uM, replicate 1 of N=3); 0.0003893 abs/min on LmPC-PLC (inhibitor 4 uM, replicate 2 of N=3); 0.0004002 abs/min at LmPC-PLC (inhibitor 4 uM, replicate 3 of N=3); 0.0003883 abs/min at LmPC-PLC (inhibitor 8 uM, replicate 1 of N=3); 0.0003708 abs/min on LmPC-PLC (inhibitor 8 uM, replicate 2 of N=3); 0.0003802 abs/min on LmPC-PLC (inhibitor 8 uM, replicate 3 of N=3). The “Activity of LmPC-PLC towards 4-NPPC (slope)” value on LmPC-PLC (inhibitor 16 uM, replicate 1 of N=3) amounted to 0.0003736 abs/min; on LmPC-PLC (inhibitor 16 uM, replicate 2 of N=3) it was 0.0003589 abs/min; on LmPC-PLC (inhibitor 16 uM, replicate 3 of N=3), 0.0003489 abs/min; on LmPC-PLC (inhibitor 31 uM, replicate 1 of N=3) it was 0.0003148 abs/min; on LmPC-PLC (inhibitor 31 uM, replicate 2 of N=3), 0.0003263 abs/min; on LmPC-PLC (inhibitor 31 uM, replicate 3 of N=3), 0.0003082 abs/min. Also, the “Activity of LmPC-PLC towards 4-NPPC (slope)” value worked out at 0.0002666 abs/min at LmPC-PLC (inhibitor 63 uM, replicate 1 of N=3, value 0 = no slope could be determined); 0.0002954 abs/min on LmPC-PLC (inhibitor 63 uM, replicate 2 of N=3, value 0 = no slope could be determined); 0.000224 abs/min at LmPC-PLC (inhibitor 63 uM, replicate 3 of N=3, value 0 = no slope could be determined); 8.381e-5 abs/min on LmPC-PLC (inhibitor 125 uM, replicate 1 of N=3, value 0 = no slope could be determined); 0.0001203 abs/min at LmPC-PLC (inhibitor 125 uM, replicate 2 of N=3, value 0 = no slope could be determined); 8.369e-5 abs/min at LmPC-PLC (inhibitor 125 uM, replicate 3 of N=3, value 0 = no slope could be determined). The “% of LLO in the pellet fraction” value in [3] amounted to 22.84%.

For `C[C@H](NC(=O)[C@@H](N)CC(N)=O)C(=O)N[C@@H](CS)C(=O)N[C@@H](CS)C(=O)N[C@@H](CC(=O)O)C(=O)N[C@@H](CCC(=O)O)C(=O)O` [NE-6] (H-NACCDE-OH; N-terminus and C-terminus assumed), in the test on BcPC-PLC [1], the “relative activity on 4-NPPC (compared to uninhibited activity), Bc” value is 0.9308 and 0.8774 and 0.8898. Further, in the test on CpPC-PLC [2], the “relative activity on 4-NPPC (compared to uninhibited activity), Cp” value was 0.8963 and 0.9574 and 0.885. In the test on BcPC-PLC [4], the “relative activity on POPC (compared to uninhibited activity), Bc” value is 1.041 and 0.8984 and 0.9777. Besides, in the test on CpPC-PLC [5], the “relative activity on POPC (compared to uninhibited activity), Cp” value was 1.136 and 1.059 and 1.144. The entries for the “relative activity of LmPC-PLC C143S on 4-NPPC (compared to uninhibited activity)” value in the test on LmPC-PLC^C143S (replicate 1), in the test on LmPC-PLC^C143S (replicate 2) and in the test on LmPC-PLC^C143S (replicate 3) were 0.8443, 0.9328 and 0.9098, respectively. Further, the “relative activity of LmPC-PLC C168S on 4-NPPC (compared to uninhibited activity)” value was determined as 0.4893 with LmPC-PLC^C168S (replicate 1), 0.5344 in the test on LmPC-PLC^C168S (replicate 2) and 0.4659 with LmPC-PLC^C168S (replicate 3). For the same compound, the “relative activity of LmPC-PLC C143S+ C168S on 4-NPPC (compared to uninhibited activity)” value in the test with LmPC-PLC^C143S+C168S (replicate 1) was determined as 1.106; in the test on LmPC-PLC^C143S+C168S (replicate 2) it was 1.078; in the test on LmPC-PLC^C143S+C168S (replicate 3), 1.062.
